The nature of series [1]: (§1) Cytotoxicity against human MT4 cells assessed as reduction in cell viability by MTT assay. It is filed as cell-based. The following applies: MT4 cells.
Series [2] is described as follows: Selectivity index, ratio of CC50 for human MT4 cells to EC50 for wild-type HIV1 3B reverse transcriptase infected in human MT4 cells. Type of series: toxicity, cell-based. As to conditions: read-out: Ratio CC50/EC50.
The nature of series [3]: Selectivity index, ratio of CC50 for human MT4 cells to EC50 for HIV1 RES056 reverse transcriptase K103N/Y181C double mutant infected in human MT4 cells. As to conditions: read-out: Ratio CC50/EC50. Type of series: toxicity, cell-based.
In series [4] the test system is Human immunodeficiency virus 1. Nature of the series: Fold resistance, ratio of EC50 for HIV1 reverse transcriptase Y181C mutant infected in human MT4 cells to EC50 for wild-type HIV1 3B reverse transcriptase infected in human MT4 cells. It is filed as cell-based.
Series [5] relates to Human immunodeficiency virus type 1 reverse transcriptase (Human immunodeficiency virus 1), Q72547 [K103N]. Nature of the series: Inhibition of HIV1 reverse transcriptase K103N mutant infected in human MT4 cells assessed as protection against virus-induced cytotoxicity by MTT assay. Type of series: cell-based.
The test system of series [6] is Human immunodeficiency virus type 1 reverse transcriptase (Human immunodeficiency virus 1), Q72547 [L100I]. Nature of the series: Inhibition of HIV1 reverse transcriptase L100I mutant infected in human MT4 cells assessed as protection against virus-induced cytotoxicity by MTT assay. It is filed as cell-based. (In general: Tetrazolium dyes change colour on reduction, which living cells bring about.)

The test system of series [7] is Human immunodeficiency virus type 1 reverse transcriptase (Human immunodeficiency virus 1), Q72547 [Y181C]. Nature of the series: Inhibition of HIV1 reverse transcriptase Y181C mutant infected in human MT4 cells assessed as protection against virus-induced cytotoxicity by MTT assay. It is filed as cell-based.
Series [8] relates to Human immunodeficiency virus type 1 reverse transcriptase (Human immunodeficiency virus 1), Q72547 [R221A]. Nature of the series: Inhibition of HIV1 reverse transcriptase Y188L mutant infected in human MT4 cells assessed as protection against virus-induced cytotoxicity by MTT assay. It is filed as cell-based.
The subject of series [9] is Human immunodeficiency virus type 1 reverse transcriptase (Human immunodeficiency virus 1), Q72547 [F227L,V106A]. Nature of the series: Inhibition of HIV1 RES056 reverse transcriptase F227L/V106A double mutant infected in human MT4 cells assessed as protection against virus-induced cytotoxicity by MTT assay. It is filed as cell-based.
For series [10], the system named is Human immunodeficiency virus 1. Nature of the series: Fold resistance, ratio of EC50 for HIV1 reverse transcriptase K103N mutant infected in human MT4 cells to EC50 for wild-type HIV1 3B reverse transcriptase infected in human MT4 cells. Type of series: cell-based.
The target of series [11] is Human immunodeficiency virus type 1 reverse transcriptase (Human immunodeficiency virus 1) (UniProt Q72547). Nature of the series: Potency index, ratio of ETV EC50 to test compound EC50 for wild-type HIV1 3B reverse transcriptase infected in human MT4 cells. It is filed as cell-based.
In series [12] the test system is Human immunodeficiency virus type 1 reverse transcriptase (Human immunodeficiency virus 1), Q72547 [L100I]. Nature of the series: Potency index, ratio of ETV EC50 to test compound EC50 for HIV1 reverse transcriptase L100I mutant infected in human MT4 cells. Type of series: cell-based.
The subject of series [13] is Human immunodeficiency virus type 1 reverse transcriptase (Human immunodeficiency virus 1), Q72547 [K103N,Y181C]. Nature of the series: Potency index, ratio of ETV EC50 to test compound EC50 for HIV1 RES056 reverse transcriptase K103N/Y181C double mutant infected in human MT4 cells. It is filed as cell-based.
Series [14] deals with Human immunodeficiency virus type 1 reverse transcriptase (Human immunodeficiency virus 1), Q72547 [F227L,V106A]. Nature of the series: Potency index, ratio of ETV EC50 to test compound EC50 for HIV1 RES056 reverse transcriptase F227L/V106A double mutant infected in human MT4 cells. It is filed as cell-based.
The subject of series [15] is Human immunodeficiency virus type 1 reverse transcriptase (Human immunodeficiency virus 1), Q72547 [K103N]. Nature of the series: Potency index, ratio of ETV EC50 to test compound EC50 for HIV1 reverse transcriptase K103N mutant infected in human MT4 cells. It is filed as cell-based.
The test system of series [16] is Human immunodeficiency virus type 1 reverse transcriptase (Human immunodeficiency virus 1), Q72547 [R221A]. Nature of the series: Potency index, ratio of ETV EC50 to test compound EC50 for HIV1 reverse transcriptase Y188L mutant infected in human MT4 cells. It is filed as cell-based.
In series [17] the test system is Human immunodeficiency virus type 1 reverse transcriptase (Human immunodeficiency virus 1), Q72547 [E138K]. Nature of the series: Potency index, ratio of ETV EC50 to test compound EC50 for HIV1 reverse transcriptase E138K mutant infected in human MT4 cells. It is filed as cell-based.
For another series, the system named is MT4. Described as §1. It is filed as cell-based. The following applies: mt4.
The test system of series [18] is Human immunodeficiency virus 1. Nature of the series: Fold resistance, ratio of EC50 for HIV1 reverse transcriptase E138K mutant infected in human MT4 cells to EC50 for wild-type HIV1 3B reverse transcriptase infected in human MT4 cells. It is filed as cell-based.

Activity calls are given as the source filed them. The calls are words filed in the database; no cut-off is given here.

For orientation: CC50 means the concentration giving 50% cytotoxicity.

For the compound `Cc1cc(C#N)cc(C)c1Oc1nc(NC2CCN(Cc3ccc(S(C)(=O)=O)cc3)CC2)nc2ccn(COCc3ccccc3)c12`, the CC50 in series [1] turned out to be 10 µM. The results for the selectivity ratio in [2] and in [3] were 459 and 17, respectively. In addition, in series [4], the Ratio EC50 fell in the range of 0.5 to 0.7.
Taken in the same sequence, the figures for `Cc1cc(C#N)cc(C)c1Oc1nc(NC2CCN(Cc3ccc(S(N)(=O)=O)cc3)CC2)nc2ccn(COCc3ccccc3)c12` were 4.84 µM, 632, 10 and 0.5 to 0.7.
On to `Cc1cc(C#Cc2cccnc2)cc(C)c1Oc1nc(NC2CCN(Cc3ccc(S(N)(=O)=O)cc3)CC2)nc2ccsc12`, for which the CC50 in series [1] came to 6.39 µM. The figures for the selectivity ratio in series [2] and in [3] were 157 and 42, respectively.
For the compound `Cc1cc(C#N)cc(C)c1Oc1nc(NC2CCN(Cc3ccco3)CC2)nc2ccsc12`, the half-maximal cytotoxic concentration (CC50) in series [1] was greater than 254 µM. Besides, in [2], the selectivity ratio was greater than 76500. Also, the inhibition result in series [5] was “Active”. The inhibition result in [6], in series [7], in [8] and in [9] was “inactive” each time.
`Cc1cc(C#N)cc(C)c1Oc1nc(NC2CCN(Cc3ccc(S(C)(=O)=O)cc3)CC2)nc2cc[nH]c12`: the CC50 in series [1] is 8.12 µM. In addition, the selectivity ratio in [2] is 589; in series [3], 16. Also, the Ratio EC50 in [10] is 0.3 to 0.6.
Regarding `Cc1cc(C#N)cc(C)c1Oc1nc(NC2CCN(Cc3ccc(S(N)(=O)=O)cc3)CC2)nc2cc[nH]c12`, in [1], the cytotoxic concentration (CC50) came out at 1.91 µM. The figures for the selectivity ratio in [2] and in [3] were 1050 and 61, respectively. For the same compound, the Ratio EC50 was in the range of 1.5 to 2.6 in [11]; 1.5 to 2.6 in series [12]; 1.5 to 2.6 in [13]; 1.5 to 2.6 in series [14]; 4 to 5 in series [15]; 4 to 5 in series [16]. Besides, the results for the Ratio EC50 in [17] and in series [10] were 4 to 5 and 0.3 to 0.6, respectively.
`Cc1ccnc2c1NC(=O)c1cccnc1N2C1CC1` [NEVIRAPINE]: the CC50 in series [1] is greater than 15 µM.
With `Cc1cc(/C=C/C#N)cc(C)c1Nc1nc(NC2CCN(Cc3ccc(S(N)(=O)=O)cc3)CC2)nc2ccsc12`, the CC50 in [1] was determined as 2.3 µM. Besides, the selectivity ratio in series [2] is 1880; in series [3], 419.
Regarding `O=C1Nc2ccc(Cl)cc2[C@@](C#CC2CC2)(C(F)(F)F)O1` [EFAVIRENZ], the 50% cytotoxic concentration (CC50) in [1] was greater than 6.34 µM.
In the case of `Cc1cc(C#Cc2ccncc2)cc(C)c1Oc1nc(NC2CCN(Cc3ccc(S(N)(=O)=O)cc3)CC2)nc2ccsc12`, the CC50 in series [1] came to 11.5 µM. The results for the selectivity ratio in series [2] and in series [3] were 340 and 52, respectively.
Take `Cc1cc(C#N)cc(C)c1Oc1nc(NC2CCN(Cc3cn(S(C)(=O)=O)cn3)CC2)nc2ccsc12`: the CC50 in series [1] came to 21.1 µM. Further, the selectivity ratio in [2] turned out to be 3720; in series [3] it was 8. The inhibition entry in [6], in series [7], in [8] and in series [9] was “inactive” each time.
For the compound `Cc1cn([C@H]2C[C@H](N=[N+]=[N-])[C@@H](CO)O2)c(=O)[nH]c1=O` [ZIDOVUDINE], in series [1], the 50% cytotoxic concentration (CC50) turned out to be 7.48 µM. The selectivity ratio in series [2] is greater than 1000; in [3], greater than 448.
Consider `Cc1cc(C#N)cc(C)c1Oc1nc(NC2CCN(Cc3ccc(S(C)(=O)=O)cc3)CC2)nc2ccn(S(=O)(=O)c3ccccc3)c12`, for which the cytotoxic concentration (CC50) in series [1] was 5.15 µM. For the same compound, the selectivity ratio is 270 in [2] and 26 in series [3].
As to `Cc1cc(C#N)cc(C)c1Oc1nc(Nc2ccc(C#N)cc2)nc(N)c1Br` [ETRAVIRINE], the CC50 in [1] fell in the range of 2.16 to 4.59 µM.
For the compound `Cc1cc(C#N)cc(C)c1Oc1nc(NC2CCN(Cc3ccc(C(N)=O)cc3)CC2)nc2ccn(S(=O)(=O)c3ccccc3)c12`, the CC50 in the series with MT4 is greater than 39.3 µM. The selectivity ratio was 227 in [2] and 2 in [3].
As to `Cc1cc(C#N)cc(C)c1Oc1nc(NC2CCN(Cc3cc(=O)[nH]c(=O)[nH]3)CC2)nc2ccsc12`, the CC50 in [1] came out at 133 µM. Also, the selectivity ratio in series [2] amounted to 18600; in series [3], 15. Also, the inhibition result in series [6], in series [7], in [8] and in series [9] was “inactive” throughout.
Regarding `Cc1cc(C#N)cc(C)c1Nc1nc(NC2CCN(Cc3ccc(S(N)(=O)=O)cc3)CC2)nc2ccsc12`, in series [1], the CC50 was greater than 227 µM. Also, the selectivity ratio in series [2] was greater than 159000; in series [3] it was greater than 7440.
Turning to `Cc1cc(C#N)cc(C)c1Oc1nc(NC2CCN(Cc3ccc(C(N)=O)cc3)CC2)nc2cc[nH]c12`, the half-maximal cytotoxic concentration (CC50) in series [1] was determined as 15.9 µM. The selectivity ratio in series [2] amounted to 1830; in series [3], 118. Also, the Ratio EC50 in series [10] lay in the range of 0.3 to 0.6.
With `Cc1cc(C#N)cc(C)c1Oc1nc(NC2CCN(Cc3ccc(N4CCCC4)cc3)CC2)nc2ccsc12`, the CC50 in [1] was 4.35 µM. In addition, the selectivity ratio in series [2] is 133; in series [3] it was less than 1.
For `Cc1cc(C#N)cc(C)c1Oc1nc(NC2CCN(Cc3c[nH]cn3)CC2)nc2ccsc12`, the cytotoxic concentration (CC50) in [1] is 24.3 µM. For the same compound, the selectivity ratio in series [2] was determined as 4420; in [3] it was 21. The inhibition result in [6], in [7], in [8] and in series [9] was “inactive” each time.
In the case of `Cc1cc(C#N)cc(C)c1Oc1nc(NC2CCN(Cc3ccc(C(N)=O)cc3)CC2)nc2ccn(COCc3ccccc3)c12`, in [1], the CC50 is 6.44 µM. The selectivity ratio in series [2] was 177; in series [3], 9. The Ratio EC50 was 0.5 to 0.7 in series [4] and 0.9 in [18].
Consider `Cc1cc(C#Cc2ccccn2)cc(C)c1Oc1nc(NC2CCN(Cc3ccc(S(N)(=O)=O)cc3)CC2)nc2ccsc12`, for which, in series [1], the CC50 turned out to be 10.3 µM. For the same compound, the values for the selectivity ratio in series [2] and in series [3] were 1130 and 12, respectively.
Turning to `Cc1cc(C#N)cc(C)c1Oc1nc(NC2CCN(Cc3n[nH]c(=O)n3C)CC2)nc2ccsc12`, the 50% cytotoxic concentration (CC50) in series [1] is greater than 254 µM. In addition, the selectivity ratio in series [2] was greater than 18500; in series [3], greater than 15.
`Cc1cc(C#N)cc(C)c1Oc1nc(NC2CCN(Cc3ccc(S(N)(=O)=O)cc3)CC2)nc2ccn(S(=O)(=O)c3ccccc3)c12`: the CC50 in series [1] is 3.67 µM. The selectivity ratio in series [2] was 454; in series [3], 33.

For the origin of these results see ChEMBL document CHEMBL4251740, “Further Exploring Solvent-Exposed Tolerant Regions of Allosteric Binding Pocket for Novel HIV-1 NNRTIs Discovery” (ACS Med Chem Lett, 2018).
